Molecules are shown by their SMILES. pIC50: −log10 of the molar value.

Data set [1] is described as follows: Half life in human pooled liver microsomes assessed as parent compound remaining measured up to 60 mins in presence of NADPH by LC-MS/MS analysis. To be noted: microsomes, 1 h. It is filed as ADME, Microsome. (In general: Liver microsomes are a subcellular fraction often used to study metabolism.)
Data set [2] can be described thus: Half life in liver microsomes. It is filed as ADME, Microsome.
Data set [3] in a line: Half life in CD1 mouse pooled liver microsomes assessed as parent compound remaining measured up to 60 mins in presence of NADPH by LC-MS/MS analysis. Type of data set: ADME, Microsome. To be noted: CD1, mouse, pooled liver microsomes.
The target in the next data set is Histone deacetylase 3 (Homo sapiens, UniProt O15379). The data set can be described thus: Inhibition of recombinant human HDAC3 using Ac-GAK(Ac)-AMC as substrate preincubated for 10 mins followed by substrate addition and measured after 30 mins by fluorescence-based assay.
The target of another data set is T1, Histone deacetylase 8 (Homo sapiens, UniProt Q9BY41).
T1 sequence (Q9BY41 whole entry): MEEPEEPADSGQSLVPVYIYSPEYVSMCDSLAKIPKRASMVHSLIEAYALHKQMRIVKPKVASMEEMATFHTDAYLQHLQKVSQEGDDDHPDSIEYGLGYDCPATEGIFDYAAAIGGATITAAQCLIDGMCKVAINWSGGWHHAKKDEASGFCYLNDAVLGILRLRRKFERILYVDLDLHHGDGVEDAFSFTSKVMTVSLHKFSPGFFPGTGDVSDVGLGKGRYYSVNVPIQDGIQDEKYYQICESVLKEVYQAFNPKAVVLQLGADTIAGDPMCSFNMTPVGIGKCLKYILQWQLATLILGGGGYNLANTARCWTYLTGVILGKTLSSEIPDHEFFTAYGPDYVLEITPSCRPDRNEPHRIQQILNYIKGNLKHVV

A further data set deals with Histone deacetylase 4 (Homo sapiens, UniProt P56524). Nature of the data set: Inhibition of recombinant human HDAC4 using Boc-Lys(TFA)-AMC as substrate preincubated for 10 mins followed by substrate addition and measured after 30 mins by fluorescence-based assay.
Data set [4] is described as follows: Stability in CD1 mouse pooled liver microsomes assessed as parent compound remaining measured at 60 mins in presence of NADPH by LC-MS/MS analysis. It is filed as ADME, Microsome. To be noted: CD1, mouse, pooled liver microsomes, read-out: Stabilty.
The target of a further data set is Histone deacetylase 5 (Homo sapiens, UniProt Q9UQL6). Nature of the data set: Inhibition of recombinant human HDAC5 using Boc-Lys(TFA)-AMC as substrate preincubated for 10 mins followed by substrate addition and measured after 30 mins by fluorescence-based assay.
Data set [5] concerns the target T2, Protein deacetylase HDAC6 (Mus musculus) (UniProt Q9Z2V5).
T2 sequence (whole entry): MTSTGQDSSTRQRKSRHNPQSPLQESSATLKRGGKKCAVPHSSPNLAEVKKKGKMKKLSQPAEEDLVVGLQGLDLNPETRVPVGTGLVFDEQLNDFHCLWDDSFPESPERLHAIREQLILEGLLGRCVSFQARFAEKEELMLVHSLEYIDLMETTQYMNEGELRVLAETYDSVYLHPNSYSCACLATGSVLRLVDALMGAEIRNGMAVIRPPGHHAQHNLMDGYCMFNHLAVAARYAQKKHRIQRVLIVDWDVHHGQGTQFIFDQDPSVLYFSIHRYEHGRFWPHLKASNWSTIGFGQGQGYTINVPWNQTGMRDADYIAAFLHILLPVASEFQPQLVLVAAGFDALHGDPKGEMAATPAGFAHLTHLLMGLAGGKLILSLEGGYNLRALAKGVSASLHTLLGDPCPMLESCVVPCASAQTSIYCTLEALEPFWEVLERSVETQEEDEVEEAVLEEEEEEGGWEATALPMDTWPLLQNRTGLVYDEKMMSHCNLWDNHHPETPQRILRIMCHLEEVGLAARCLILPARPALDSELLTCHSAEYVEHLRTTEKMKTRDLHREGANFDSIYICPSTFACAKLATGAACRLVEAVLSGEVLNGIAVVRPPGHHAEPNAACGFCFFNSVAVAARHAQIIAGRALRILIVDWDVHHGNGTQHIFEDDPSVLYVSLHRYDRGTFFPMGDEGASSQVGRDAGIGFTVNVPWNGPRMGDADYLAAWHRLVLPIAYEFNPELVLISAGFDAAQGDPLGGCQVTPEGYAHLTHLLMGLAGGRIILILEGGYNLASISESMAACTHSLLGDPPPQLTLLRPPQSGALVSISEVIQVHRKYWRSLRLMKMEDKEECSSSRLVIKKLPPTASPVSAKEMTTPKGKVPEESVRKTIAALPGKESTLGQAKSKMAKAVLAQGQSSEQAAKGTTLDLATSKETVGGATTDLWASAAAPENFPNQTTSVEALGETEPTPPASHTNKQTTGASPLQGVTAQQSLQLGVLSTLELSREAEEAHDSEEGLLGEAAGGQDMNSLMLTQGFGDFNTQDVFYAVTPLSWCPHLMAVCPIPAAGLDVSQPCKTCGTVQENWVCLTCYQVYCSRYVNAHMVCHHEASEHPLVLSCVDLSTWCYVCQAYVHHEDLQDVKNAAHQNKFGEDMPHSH
The data set can be described thus: In vivo inhibition of HDAC6 in wild type mouse assessed as increase in alpha-tubulin acetylation in sciatic nerve tissue at 20 mg/kg, ip administered for 12 hrs by immunoblot analysis relative to control. It is filed as functional, organism-based. The arrangement: scale not given: the % may be the effect or the level left.

In the next data set the target is T3, Histone deacetylase 7 (Homo sapiens, UniProt Q8WUI4).
T3 sequence (Q8WUI4 whole entry): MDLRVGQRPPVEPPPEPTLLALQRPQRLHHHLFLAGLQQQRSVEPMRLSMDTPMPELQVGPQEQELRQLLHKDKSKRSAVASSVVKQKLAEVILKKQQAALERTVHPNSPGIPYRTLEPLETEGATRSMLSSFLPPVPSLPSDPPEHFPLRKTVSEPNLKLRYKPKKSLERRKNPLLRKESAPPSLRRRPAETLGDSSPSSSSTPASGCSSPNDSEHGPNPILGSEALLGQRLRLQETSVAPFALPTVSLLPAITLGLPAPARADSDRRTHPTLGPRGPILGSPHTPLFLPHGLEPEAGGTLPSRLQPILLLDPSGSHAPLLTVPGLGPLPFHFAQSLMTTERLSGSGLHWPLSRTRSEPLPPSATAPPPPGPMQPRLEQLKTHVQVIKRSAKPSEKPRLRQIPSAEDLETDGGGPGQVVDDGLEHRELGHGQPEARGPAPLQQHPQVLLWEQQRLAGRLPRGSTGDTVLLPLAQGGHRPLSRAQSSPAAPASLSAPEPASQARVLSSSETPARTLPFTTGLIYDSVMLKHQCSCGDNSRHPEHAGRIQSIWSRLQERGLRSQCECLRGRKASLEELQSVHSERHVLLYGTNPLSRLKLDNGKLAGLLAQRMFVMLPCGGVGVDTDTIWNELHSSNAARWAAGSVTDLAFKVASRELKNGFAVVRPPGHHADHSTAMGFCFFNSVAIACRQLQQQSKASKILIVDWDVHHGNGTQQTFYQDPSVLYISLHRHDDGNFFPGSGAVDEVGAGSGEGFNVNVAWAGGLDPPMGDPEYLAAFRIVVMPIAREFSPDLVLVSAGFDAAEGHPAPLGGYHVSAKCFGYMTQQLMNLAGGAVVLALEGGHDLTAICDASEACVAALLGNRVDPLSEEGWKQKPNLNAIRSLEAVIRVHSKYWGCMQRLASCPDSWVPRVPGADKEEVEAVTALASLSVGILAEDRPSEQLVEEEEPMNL

Data set [6] can be described thus: Half life in hepatocytes. Type of data set: ADME, cell-based, Hepatocyte.
Data set [7] has as its target T2, Protein deacetylase HDAC6 (Mus musculus). Nature of the data set: Inhibition of HDAC6 in mouse Neuro2a cells assessed as fold increase in ratio of acetylated alpha-tubulin to alpha tubulin at 0.01 uM incubated for overnight by Western blot analysis. Type of data set: cell-based. To be noted: time 12.0 hrs. For orientation: In western blotting, separated proteins are transferred to a membrane and probed.

The next data set has as its target Histone deacetylase 2 (Homo sapiens, UniProt Q92769). Nature of the data set: Inhibition of recombinant human HDAC2 using Ac-GAK(Ac)-AMC as substrate preincubated for 10 mins followed by substrate addition and measured after 30 mins by fluorescence-based assay.
Data set [8] concerns the target T2, Protein deacetylase HDAC6 (Mus musculus). The data set can be described thus: Inhibition of HDAC6 in mouse Neuro2a cells assessed as fold increase in ratio of acetylated alpha-tubulin to alpha tubulin at 1 uM incubated for overnight by Western blot analysis. It is filed as cell-based. To be noted: time 12.0 hrs.
A short description of data set [9]: Stability in human pooled liver microsomes assessed as parent compound remaining measured at 60 mins in presence of NADPH by LC-MS/MS analysis. It is filed as ADME, Microsome. To be noted: microsomes, 1 h.
The target in another data set is Histone deacetylase 9 (Homo sapiens, UniProt Q9UKV0). Nature of the data set: Inhibition of recombinant human HDAC9 using Boc-Lys(TFA)-AMC as substrate preincubated for 10 mins followed by substrate addition and measured after 30 mins by fluorescence-based assay.
Sequence of Histone deacetylase 9 (Q9UKV0 whole entry): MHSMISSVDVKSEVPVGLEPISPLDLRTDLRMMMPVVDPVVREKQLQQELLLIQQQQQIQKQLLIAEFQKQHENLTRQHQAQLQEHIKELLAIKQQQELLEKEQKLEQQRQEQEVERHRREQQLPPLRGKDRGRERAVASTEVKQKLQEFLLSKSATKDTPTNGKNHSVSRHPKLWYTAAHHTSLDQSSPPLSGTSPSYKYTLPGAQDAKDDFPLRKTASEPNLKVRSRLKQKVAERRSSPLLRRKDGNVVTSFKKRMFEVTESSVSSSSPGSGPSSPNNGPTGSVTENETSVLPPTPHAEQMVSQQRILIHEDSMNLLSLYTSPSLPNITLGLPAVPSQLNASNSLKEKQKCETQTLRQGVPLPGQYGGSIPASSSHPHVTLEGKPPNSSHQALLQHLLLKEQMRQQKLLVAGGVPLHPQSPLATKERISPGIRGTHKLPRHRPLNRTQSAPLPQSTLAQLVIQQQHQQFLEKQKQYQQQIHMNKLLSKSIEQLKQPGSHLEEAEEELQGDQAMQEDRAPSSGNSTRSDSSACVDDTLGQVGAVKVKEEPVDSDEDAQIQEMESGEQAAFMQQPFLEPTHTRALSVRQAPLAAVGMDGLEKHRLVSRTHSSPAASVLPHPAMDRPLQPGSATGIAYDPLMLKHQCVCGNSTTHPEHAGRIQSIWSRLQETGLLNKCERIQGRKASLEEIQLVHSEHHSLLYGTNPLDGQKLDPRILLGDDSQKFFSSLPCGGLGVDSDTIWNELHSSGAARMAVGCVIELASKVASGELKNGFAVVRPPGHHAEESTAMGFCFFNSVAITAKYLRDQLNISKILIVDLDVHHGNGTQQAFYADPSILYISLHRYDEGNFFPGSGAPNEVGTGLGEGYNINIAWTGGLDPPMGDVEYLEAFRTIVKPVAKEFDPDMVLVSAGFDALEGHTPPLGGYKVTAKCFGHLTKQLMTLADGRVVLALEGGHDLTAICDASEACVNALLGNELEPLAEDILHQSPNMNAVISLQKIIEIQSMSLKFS

Sequence of Histone deacetylase 3 (O15379 whole entry): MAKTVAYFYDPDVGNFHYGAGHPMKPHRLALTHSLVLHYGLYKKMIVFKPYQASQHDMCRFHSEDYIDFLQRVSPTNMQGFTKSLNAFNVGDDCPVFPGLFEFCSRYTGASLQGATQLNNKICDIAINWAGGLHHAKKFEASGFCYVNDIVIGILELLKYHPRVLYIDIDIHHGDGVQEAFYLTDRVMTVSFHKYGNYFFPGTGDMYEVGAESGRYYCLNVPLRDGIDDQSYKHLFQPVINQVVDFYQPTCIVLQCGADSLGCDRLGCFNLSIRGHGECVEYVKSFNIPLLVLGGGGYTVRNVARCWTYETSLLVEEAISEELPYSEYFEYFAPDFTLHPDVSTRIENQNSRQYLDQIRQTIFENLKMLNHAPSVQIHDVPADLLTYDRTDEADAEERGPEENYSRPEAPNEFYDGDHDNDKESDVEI
Sequence of Histone deacetylase 2 (Q92769 whole entry): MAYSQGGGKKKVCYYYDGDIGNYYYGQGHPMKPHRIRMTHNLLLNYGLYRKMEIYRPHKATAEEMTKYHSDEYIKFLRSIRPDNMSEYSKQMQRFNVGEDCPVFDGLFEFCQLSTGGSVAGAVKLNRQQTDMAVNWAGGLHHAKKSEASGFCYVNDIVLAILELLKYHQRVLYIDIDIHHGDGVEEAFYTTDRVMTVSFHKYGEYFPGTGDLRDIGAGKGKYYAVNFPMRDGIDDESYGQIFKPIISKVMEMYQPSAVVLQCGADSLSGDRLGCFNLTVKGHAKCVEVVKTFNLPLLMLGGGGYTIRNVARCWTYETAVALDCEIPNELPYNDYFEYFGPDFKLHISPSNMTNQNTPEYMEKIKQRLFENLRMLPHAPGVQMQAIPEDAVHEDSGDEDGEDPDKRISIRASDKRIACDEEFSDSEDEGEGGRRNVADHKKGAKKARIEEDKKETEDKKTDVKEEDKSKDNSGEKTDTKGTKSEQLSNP
Sequence of Histone deacetylase 5 (Q9UQL6 whole entry): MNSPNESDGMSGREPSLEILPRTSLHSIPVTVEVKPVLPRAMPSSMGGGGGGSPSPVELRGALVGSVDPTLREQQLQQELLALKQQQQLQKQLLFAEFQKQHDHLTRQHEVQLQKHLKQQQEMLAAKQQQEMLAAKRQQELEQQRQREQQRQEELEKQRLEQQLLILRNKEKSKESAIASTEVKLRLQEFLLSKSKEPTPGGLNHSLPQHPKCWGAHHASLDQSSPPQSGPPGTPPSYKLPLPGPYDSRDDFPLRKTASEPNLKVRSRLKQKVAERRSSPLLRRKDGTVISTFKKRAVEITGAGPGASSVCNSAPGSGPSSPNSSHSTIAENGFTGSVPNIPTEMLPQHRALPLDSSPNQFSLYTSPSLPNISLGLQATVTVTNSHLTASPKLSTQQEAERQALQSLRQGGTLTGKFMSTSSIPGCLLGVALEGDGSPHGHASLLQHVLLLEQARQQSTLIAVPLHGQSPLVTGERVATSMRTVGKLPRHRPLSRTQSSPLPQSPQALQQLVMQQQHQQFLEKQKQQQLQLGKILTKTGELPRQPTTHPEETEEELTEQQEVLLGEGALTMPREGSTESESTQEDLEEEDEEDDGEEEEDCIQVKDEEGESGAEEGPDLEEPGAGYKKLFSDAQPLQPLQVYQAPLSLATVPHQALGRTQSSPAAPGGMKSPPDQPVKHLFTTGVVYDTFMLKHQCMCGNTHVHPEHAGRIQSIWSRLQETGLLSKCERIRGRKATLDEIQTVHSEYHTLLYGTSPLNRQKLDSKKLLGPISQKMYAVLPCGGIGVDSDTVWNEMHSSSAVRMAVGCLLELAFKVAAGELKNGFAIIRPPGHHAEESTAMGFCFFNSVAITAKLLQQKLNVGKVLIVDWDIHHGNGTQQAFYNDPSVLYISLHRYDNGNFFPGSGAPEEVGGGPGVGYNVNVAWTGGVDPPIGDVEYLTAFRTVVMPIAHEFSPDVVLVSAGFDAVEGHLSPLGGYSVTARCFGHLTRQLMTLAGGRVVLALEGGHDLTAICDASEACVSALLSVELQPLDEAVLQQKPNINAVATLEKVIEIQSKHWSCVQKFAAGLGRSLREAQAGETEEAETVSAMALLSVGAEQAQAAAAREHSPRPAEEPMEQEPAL
Sequence of Histone deacetylase 4 (P56524 whole entry): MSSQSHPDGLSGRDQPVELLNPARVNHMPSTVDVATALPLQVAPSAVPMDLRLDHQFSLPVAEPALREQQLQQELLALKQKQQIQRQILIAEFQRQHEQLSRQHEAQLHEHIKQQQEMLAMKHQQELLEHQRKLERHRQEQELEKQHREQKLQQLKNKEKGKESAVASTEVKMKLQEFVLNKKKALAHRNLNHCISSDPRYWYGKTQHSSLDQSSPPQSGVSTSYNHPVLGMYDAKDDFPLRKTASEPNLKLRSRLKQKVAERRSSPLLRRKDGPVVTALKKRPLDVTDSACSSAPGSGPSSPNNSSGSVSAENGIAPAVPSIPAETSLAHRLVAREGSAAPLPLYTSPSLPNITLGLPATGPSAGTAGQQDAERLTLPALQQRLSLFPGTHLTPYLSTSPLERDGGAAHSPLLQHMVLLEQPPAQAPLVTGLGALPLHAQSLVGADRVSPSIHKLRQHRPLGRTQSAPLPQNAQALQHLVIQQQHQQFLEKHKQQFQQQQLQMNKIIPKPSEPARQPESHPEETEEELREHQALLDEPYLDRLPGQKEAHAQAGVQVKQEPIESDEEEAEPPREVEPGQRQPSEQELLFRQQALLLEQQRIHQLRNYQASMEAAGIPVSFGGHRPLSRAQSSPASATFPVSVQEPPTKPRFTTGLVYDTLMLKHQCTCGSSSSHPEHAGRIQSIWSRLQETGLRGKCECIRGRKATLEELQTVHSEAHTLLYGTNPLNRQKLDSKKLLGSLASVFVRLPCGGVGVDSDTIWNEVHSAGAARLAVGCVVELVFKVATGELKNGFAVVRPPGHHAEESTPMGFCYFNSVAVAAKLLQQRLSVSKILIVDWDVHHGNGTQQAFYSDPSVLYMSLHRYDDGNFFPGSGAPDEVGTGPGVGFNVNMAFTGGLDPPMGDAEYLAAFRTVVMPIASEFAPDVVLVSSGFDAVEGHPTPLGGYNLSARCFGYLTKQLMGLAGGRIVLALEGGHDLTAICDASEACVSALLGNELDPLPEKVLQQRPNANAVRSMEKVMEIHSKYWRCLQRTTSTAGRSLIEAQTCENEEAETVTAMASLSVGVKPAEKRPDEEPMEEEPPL
Description for Histone deacetylase 7: Inhibition of recombinant human HDAC7 using Boc-Lys(TFA)-AMC as substrate preincubated for 10 mins followed by substrate addition and measured after 30 mins by fluorescence-based assay
Description for Histone deacetylase 8: Inhibition of recombinant human HDAC8 using Boc-Lys(TFA)-AMC as substrate preincubated for 10 mins followed by substrate addition and measured after 30 mins by fluorescence-based assay

Turning to `O=C(NO)c1ccc(CN2CCCc3cc(Cl)ccc32)cc1`, the t1/2 in data set [1] was determined as 483 min. Also, the half-life in data set [2] was below 30 min; in [3], 31.9 min; in data set [6], below 30 min. Besides, the pIC50 on Histone deacetylase 3 is 5.90; at Histone deacetylase 8, 5.51; at Histone deacetylase 4, 5.67; at Histone deacetylase 5, 5.83; on Histone deacetylase 7, 6.29; on Histone deacetylase 2 it was 6.55. Moreover, at Histone deacetylase 9, the negative-log IC50 (pIC50) was 5.47. In addition, in data set [4], the remaining at 1 h amounted to 27.3%. For the same molecule, in data set [5], the Activity amounted to 125%. In addition, the fold change (FC) in [7] and in data set [8] was 1 throughout. The Stabilty in data set [9] stood at 42.6%.

A word on the half-life: it is the time in which the quantity being followed falls by half. What is called pIC50 is the IC50 on a negative log10 scale, so that one unit is a factor of ten.

The record behind these values is ChEMBL document CHEMBL4823254, “Tetrahydroquinoline-Capped Histone Deacetylase 6 Inhibitor SW-101 Ameliorates Pathological Phenotypes in a Charcot-Marie-Tooth Type 2A Mouse Model” (J Med Chem, 2021).
